Data: patent publication EP4458977A1, “SELF-ASSEMBLING PEPTIDE AMPHIPHILES AS RETROVIRAL TRANSDUCTION ENHANCERS” (Max-Planck-Gesellschaft zur Förderung der Wissenschaften …, priority 2023, dated 2024)
“Also recorded” adds a separate entry of the source. Where two headings read alike, the source gives them in different places. Where a SMILES comes first, the peptide text is derived from it. The star is where a group is joined. X1 = CC/C=C\C/C=C\C/C=C\C/C=C\C/C=C\CCCC(=O)*; Fmoc = O=C(OCC1c2ccccc2-c2ccccc21)*; Lauroyl = CCCCCCCCCCCC(=O)*; Nonanoyl = CCCCCCCCC(=O)*

Assays:
[1] = TEM of peptide assemblies (fibril formation / assembly); type: physicochemical; parameters: key to Fibril Formation: "1" means fibril formation observed; "0" means no fibrils observed; settings: for TEM morphology (in words): 1 mg/mL in PBS; for Assembly without hydrophob residue: corresponding peptide without hydrophobic moiety; for Assembly: peptide amphiphile; for Fibril Formation: via TEM, hydrophobic moiety exchange
Summary of the method: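 Peptides predissolved in DMSO at 10 mg/mL (stock), diluted in PBS to 650 µM or 1 mg/mL final and incubated 1 d at rt (20–25 °C) to form fibrils. Other concentrations obtained by diluting preformed fibrils; assemblies imaged by TEM.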

[2] = Zeta-potential measurement (dynamic light scattering); type: physicochemical; settings: for Count Rate / kcps: derived count rate of scattered light during zeta-potential measurements
Description: Zeta-potential: 60 µL of the peptides (1 mg mL-1) were diluted in 600 µL, 1 mM KCI solution and placed in a disposable folded capillary cuvette. All zeta-potential measurements were conducted by dynamic light scattering technology (Zetasizer, Malvern Instruments) and in triplicates for each sample. The derived count rate of the zeta potential measurement was used as information on the light scattering intensity and turbidity of the sample as a further indicator for microscopic aggregation.

HeLa cells = experiment: Confocal laser scanning microscopy and degradation study with PA library and HeLa cells; type: cell-based; settings: for association with cellular membranes: 2 µg added to 20.000 HeLa cells, 30 min; for degradability (in words) / Degradability / % (rel. to initial particles > 10 µm^2): HeLa cells; for degradability (in words): 3 days; for Degradability / % (rel. to initial particles > 10 µm^2): 3 d relative to 30 min; for aggregate number decreases / degraded in presence of HeLa cells within 3 days: d3 relative to d0
Summary of the method: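 HeLa cells (20,000/well) got Proteostat-stained PAs (2 µg peptide per 20.000 cells) with Hoechst nuclear stain, 30 min at 37°C, PBS-washed, then held 3 d at 37°C unwashed. Confocal imaging at d0 and d3 counted aggregates >10 µm^2 in 1008 × 1008 µm, three technical replicates. Degradation taken as d3/d0 aggregate number.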

[3] = Zeta-potential measurement (dynamic light scattering); type: physicochemical
HIV-1 = settings: for enhancement of HIV-1 infection / transduction (in words): 6.5 µM, 1.3 µM, 0.26 µM; for Infectivity enhancing N fold at 1.3 µM: relative to virus only;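 as to all read-outs here: TZM-bl reporter cells exposed to HIV-1 with peptide fibrils, infection read out as β-galactosidase luminescence, compared with virus alone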
Description: HIV-1 Infection Assay with TZM-bl cells: The effect of peptide fibrils on HIV-1 infection was studied via a luminescence assay for β-galactosidase, which was reported by TZM-bl cells upon infection. The HIV-1 infection assay was conducted in three technical replicates and repeated in three independent experiments unless stated otherwise.

[4] = ATR-FT-IR determination of β-sheet content; type: physicochemical; settings: 1 mg/mL in PBS lyophilized; integral at 1630 cm^-1 relative to 1650-1700 cm^-1
Summary of the method: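 From second-derivative spectra, β-sheet amount is the 1630 cm-1 integral over the 1650-1700 cm-1 (native) region. Spectra were taken on solid, lyophilized fibrils via diamond-crystal ATR, averaging 64 scans at 2 cm^-1 resolution.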

[5] = Thioflavin T (ThT) fluorescence assay; type: physicochemical; settings: relative to PBS control
Description: Transmission electron microscopy (TEM) measurements, Thioflavin (ThT), zeta-potential measurements for fibril characterization were prepared and conducted according to prior art procedures. […] Fibrils were defined as distinct, if no visible structures could be identified in fluorescence and brightfield microscopy. A peptide fibril was considered as ThT-active if the fluorescence intensity was at least twice as strong compared to the control (PBS containing 10% DMSO).

[6] = Fluorescence microscopy of ThT-stained fibrils (µm-sized aggregates); type: physicochemical; settings: for fluorescent, µm-sized aggregates (ThT staining): 1 mg/mL stained with 50 µM ThT
Summary of the method: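 Fibrils (1 mg mL^-1) mixed 1:9 with 50 µM ThT, giving 0.1 mg mL^-1 stained fibrils on glass. Imaged under 10x air objective with excitation 480/40 nm and emission 527/30 nm. Fibrils called distinct when no visible structures appeared in fluorescence or brightfield.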

| SMILES | TEM morphology (in words) [1] | Assembly without hydrophob residue [1] | Assembly [1] | Fibril Formation [1] | zeta-potential (in words) [2] | Count Rate / kcps [2] | association with cellular membranes (HeLa cells) | degradability (in words) (HeLa cells) | Degradability / % (rel. to initial particles > 10 µm^2) (HeLa cells) | aggregate number decreases / degraded in presence of HeLa cells within 3 days (HeLa cells) | Zeta-Potential / mV [3] | enhances infectivity at 1.3 µM concentration, times more efficient compared to virus only infection (HIV-1) | enhancement of HIV-1 infection / transduction (in words) (HIV-1) | Infectivity enhancing N fold at 1.3 µM (HIV-1) | β-sheet amount [4] | N-fold ThT-fluorescence [5] | formation of µm-sized aggregates in aqueous medium / PBS (in words) [6] | fluorescent, µm-sized aggregates (ThT staining) [6] | infectivity enhancement at 1.3 µM concentration compared to virus only infection (in words) (HIV-1) | enhancement of HIV-1 infection / transduction (in words) (HIV-1; listed as peptide amphiphile with eicosapentaenoic acid (EPA)) |
| --- | --- | --- | --- | --- | --- | --- | --- | --- | --- | --- | --- | --- | --- | --- | --- | --- | --- | --- | --- | --- |
| CC(C)[C@H](NC(=O)OCC1c2ccccc2-c2ccccc21)C(=O)N[C@H](C(=O)N[C@H](C(=O)N[C@@H](C)C(=O)N[C@@H](C)C(=O)N[C@@H](C)C(=O)N[C@@H](CCCCN)C(=O)N[C@@H](CCCCN)C(=O)N[C@@H](CCCCN)C(N)=O)C(C)C)C(C)C [Pat12] (Fmoc-VVVAAAKKK-NH2) | able to form fibrils; also recorded: fibrillar morphologies | No | Yes | 1 | positive zeta-potential | 509.5 kcps | association with cellular membranes | non-degradable PA | 28% | 28% | 15.2 mV | 5 times | showed infectivity enhancement | 5±1 N fold | 52% | 269.9 | form µm-sized aggregates | fluorescent, µm-sized aggregates |  |  |
| CCCCCCCCCCCC(=O)N[C@H](C(=O)N[C@H](C(=O)N[C@H](C(=O)N[C@@H](C)C(=O)N[C@@H](C)C(=O)N[C@@H](C)C(=O)N[C@@H](CCCCN)C(=O)N[C@@H](CCCCN)C(=O)N[C@@H](CCCCN)C(N)=O)C(C)C)C(C)C)C(C)C [Pat7] (Lauroyl-VVVAAAKKK-NH2) | able to form fibrils; also recorded: fibrillar morphologies | No | Yes | 1 | positive zeta-potential | 3558.1 kcps | association with cellular membranes | non-degradable PA | -32% | 32% | 19.4 mV | 6 times |  | 6±1 N fold | 49% | 185.7 | form µm-sized aggregates | fluorescent, µm-sized aggregates |  |  |
| CCCCCCCCC(=O)N[C@H](C(=O)N[C@H](C(=O)N[C@H](C(=O)N[C@@H](C)C(=O)N[C@@H](C)C(=O)N[C@@H](C)C(=O)N[C@@H](CCCCN)C(=O)N[C@@H](CCCCN)C(=O)N[C@@H](CCCCN)C(N)=O)C(C)C)C(C)C)C(C)C [Pat8] (Nonanoyl-VVVAAAKKK-NH2) | formed fibrils in aqueous medium; also recorded: fibrillar morphologies | No | Yes | 1 |  | 77.2 kcps | association with cellular membranes | non-degradable PA | 78% | 78% | 13.5 mV |  |  | 2±0 N fold | 49% | 37.1 | failed to form µm-sized aggregates in aqueous medium | fluorescent, µm-sized aggregates | does not enhance infectivity |  |
| CC/C=C\C/C=C\C/C=C\C/C=C\C/C=C\CCCC(=O)N[C@H](C(=O)N[C@H](C(=O)N[C@H](C(=O)N[C@@H](C)C(=O)N[C@@H](C)C(=O)N[C@@H](C)C(=O)N[C@@H](CCCCN)C(=O)N[C@@H](CCCCN)C(=O)N[C@@H](CCCCN)C(N)=O)C(C)C)C(C)C)C(C)C [Pat10] (X1-VVVAAAKKK-NH2) | able to form fibrils; also recorded: condensed spherical structures composed of fibrils | No | Yes | 1 | positive zeta-potential | 6069.8 kcps | association with cellular membranes | degradable PA | 99% | 99% | 16.9 mV | 12 times | showed infectivity enhancement | 12±1 N fold | 51% | 61.9 | form µm-sized aggregates | fluorescent, µm-sized aggregates |  | even stronger infectivity enhancement than the reference compounds EF-C or PA1 |
